Data set [1] deals with COLO 320. Briefly: Antiproliferative effect against human COLO 320 colon adenocarcinoma cells. In kind it is functional, cell-based.
Data set [2] deals with Daudi. Put plainly: Antiproliferative effect against human Daudi Burkitt lymphoma cells. In kind it is functional, cell-based.
Data set [3] deals with HL-60. Put plainly: Antiproliferative effect against human HL60 promyelocytic leukemia cells. In kind it is functional, cell-based.
Data set [4] deals with LX-830 cell line. Put plainly: Antiproliferative effect against mouse LX830 lymphoma cells. It is filed as functional, cell-based.
The subject of data set [5] is NIH3T3. Put plainly: Antiproliferative effect against mouse NIH3T3 embryonic cells. It is filed as functional, cell-based.
For data set [6], the system named is CCRF S-180. Briefly: Antiproliferative effect against mouse S180 sarcoma cells. In kind it is functional, cell-based.
Data set [7] relates to U-937. Briefly: Antiproliferative effect against human U937 histiocytic lymphoma cells. It is filed as functional, cell-based.
The subject of data set [8] is U-937. Briefly: Rate of oxygen consumption of human U937 cells (10e7 cells) at 10 uM concentration was determined at 30degreeC, with control value 14.5. It is filed as functional, cell-based.
Data set [9] concerns LX-830 cell line. Put plainly: Antiproliferative effect against mouse LX830 lymphoma cells; inactive. In kind it is functional, cell-based.
Data set [10] is described as follows: Redox potential from cyclic voltammogram. In kind it is physicochemical.
For data set [11], the system named is U-937. Briefly: Rate of oxygen consumption of human U937 cells (10e7 cells) at 200 uM concentration was determined at 30 degree C. In kind it is functional, cell-based.
Data set [12] is described as follows: Rate of oxidation by the compound at 0.44 mM versus 0.49 mM of reduced cytochrome was determined at 30 degree C.
A short description of data set [13]: Rate of oxidation by the compound at 0.5 mM versus 0.24 mM of NADH was determined.

The values that follow come from ChEMBL document CHEMBL1151065, “Antiproliferative activity of haloosmocenium ions against human and murine cancer cell lines” (Bioorg Med Chem Lett, 1994).

Regarding CISPLATIN [listing 1 of 2 here], the IC50 in data set [1] was found to be 6.6 µM; in [2], 1.7 µM; in data set [3], 4.3 µM; in [4] it was 13.2 µM; in [5], 0.3 µM; in data set [6] it was 0.8 µM. In addition, the IC50 in [7] was 5.2 µM.

For the substance CISPLATIN [listing 2 of 2 here], in data set [8], the Oxygen consumption rate was 13.4 nM/min.

As for “osmium(2+) ion bis(cyclopenta-1,3-diene) hexafluoro-phosphanuide iodide [listing 1 of 2 here]”, the IC50 in data set [1] is greater than 200 µM; in data set [2], 79 µM; in [3] it was 75 µM; in data set [9], “Not Active”; in data set [5], 87 µM; in [6], 120 µM. The same substance came in with an IC50 in data set [7] of 196 µM. The substance further returned an E0 in [10] of 0.46.

For the substance “osmium(2+) ion bis(cyclopenta-1,3-diene) hexafluoro-phosphanuide iodide [listing 2 of 2 here]”, the Oxygen consumption rate in [11] was determined as 10.5 nM/min. Moreover, the figures for the Oxidation rate in data set [12] and in data set [13] were 824 nM/min and 8 µM/min, respectively.

For orientation: IC50 means the concentration that inhibits the measured activity by half.
